ChEMBL document CHEMBL5149963, “Xanthenes in Medicinal Chemistry - Synthetic strategies and biological activities” (Eur J Med Chem, 2021)
Values after ≈ are worked out from the molar mass of the structure shown.

Assays:
Bacillus subtilis = test: Antibacterial activity against Bacillus subtilis ATCC 23857 by disc diffusion assay; format: functional
[1] = Antioxidant activity assessed as DPPH radical scavenging activity relative to control; format: functional; set-up: concentration or dose not given beside the values
SW480 = test: Antiproliferative activity against human SW480 cells assessed as reduction in cell viability measured after 48 hrs by trypan blue staining method; format: functional, cell-based; details: SW480, 48 h
HepG2 = test: Antiproliferative activity against human HepG2 cells assessed as reduction in cell viability measured after 48 hrs by trypan blue staining method; format: functional, cell-based; details: HepG2, 48 h
[2] = molecular target: Glucocorticoid receptor (Homo sapiens) (UniProt P04150); test: Binding affinity to human GR assessed as inhibition of enzyme substrate complex formation
Sequence of Glucocorticoid receptor (Homo sapiens) (P04150 whole entry): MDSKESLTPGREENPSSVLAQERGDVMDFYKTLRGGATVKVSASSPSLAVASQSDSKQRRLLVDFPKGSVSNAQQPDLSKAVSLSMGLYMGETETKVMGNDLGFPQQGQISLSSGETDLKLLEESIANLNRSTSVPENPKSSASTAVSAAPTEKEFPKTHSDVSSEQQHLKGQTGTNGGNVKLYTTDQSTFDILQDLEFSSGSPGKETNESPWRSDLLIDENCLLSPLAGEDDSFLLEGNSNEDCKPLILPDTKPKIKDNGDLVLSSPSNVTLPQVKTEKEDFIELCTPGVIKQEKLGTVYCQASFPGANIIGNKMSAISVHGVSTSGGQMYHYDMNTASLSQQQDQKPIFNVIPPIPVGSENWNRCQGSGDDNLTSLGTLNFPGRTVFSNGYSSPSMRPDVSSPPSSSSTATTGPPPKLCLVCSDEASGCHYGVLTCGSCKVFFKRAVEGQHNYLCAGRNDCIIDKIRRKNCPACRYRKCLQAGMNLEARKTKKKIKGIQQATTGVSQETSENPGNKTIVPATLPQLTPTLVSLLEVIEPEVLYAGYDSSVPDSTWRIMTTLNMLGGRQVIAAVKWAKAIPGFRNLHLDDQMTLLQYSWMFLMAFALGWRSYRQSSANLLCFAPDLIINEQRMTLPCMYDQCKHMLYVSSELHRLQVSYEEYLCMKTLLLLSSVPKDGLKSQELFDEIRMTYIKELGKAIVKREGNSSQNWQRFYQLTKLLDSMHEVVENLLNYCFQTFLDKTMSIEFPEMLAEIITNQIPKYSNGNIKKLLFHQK

HeLa = test: Cytotoxicity against human HeLa cells assessed as reduction in cell viability measured after 48 hrs by MTT assay; format: functional, cell-based
A549 = test: Cytotoxicity against human A549 cells assessed as reduction in cell viability measured after 48 hrs by MTT assay; format: functional, cell-based; details: A549, 48 h
Bel-7402 = test: Cytotoxicity against human Bel-7402 cells assessed as reduction in cell viability measured after 48 hrs by MTT assay; format: functional, cell-based; details: Bel-7402, 48 h
MG-63 = test: Cytotoxicity against human MG-63 cells assessed as reduction in cell viability measured after 48 hrs by MTT assay; format: functional, cell-based; details: MG-63, 48 h
NB-4 = test: Antiproliferative activity against human NB-4 cells; format: functional, cell-based
[3] = Activation of AMPK in rat L6 cells assessed as increase in AMPK phosphorylation; format: cell-based
[4] = Antioxidant activity assessed as ABTS radical scavenging activity at 50 to 250 microg/ml incubated for 7 mins relative to control; format: functional; details: dose 50-250 µg/ml
[5] = Antioxidant activity assessed as DPPH radical scavenging activity at 50 to 250 microg/ml incubated for 20 mins relative to control; format: functional; details: dose 50-250 µg/ml
Beta-secretase 1 = Beta-secretase 1 (Homo sapiens, UniProt P56817); test: Inhibition of BACE1 (unknown origin)
Sequence of Beta-secretase 1 (P56817 whole entry): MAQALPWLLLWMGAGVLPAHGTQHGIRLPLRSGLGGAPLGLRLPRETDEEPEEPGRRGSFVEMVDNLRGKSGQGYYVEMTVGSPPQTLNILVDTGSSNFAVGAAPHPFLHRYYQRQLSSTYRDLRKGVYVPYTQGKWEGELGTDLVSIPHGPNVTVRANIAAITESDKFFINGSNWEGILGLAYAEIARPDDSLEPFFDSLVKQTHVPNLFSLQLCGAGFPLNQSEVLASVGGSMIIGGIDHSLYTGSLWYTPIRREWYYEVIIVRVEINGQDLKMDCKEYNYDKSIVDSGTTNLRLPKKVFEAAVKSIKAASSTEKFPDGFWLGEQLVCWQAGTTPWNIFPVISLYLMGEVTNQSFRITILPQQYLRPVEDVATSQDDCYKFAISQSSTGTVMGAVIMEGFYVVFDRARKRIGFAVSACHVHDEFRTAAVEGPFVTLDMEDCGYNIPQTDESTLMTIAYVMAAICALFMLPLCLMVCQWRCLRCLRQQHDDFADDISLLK

MCF7 = test: Cytotoxicity against human MCF7 cells assessed as reduction in cell viability by MTT assay; format: functional, cell-based
MDA-MB-231 = test: Cytotoxicity against human MDA-MB-231 cells assessed as reduction in cell viability by MTT assay; format: functional, cell-based
Vaccinia virus = test: In vivo antiviral activity against Vaccinia virus infected in mouse assessed as reduction in virus severity of virus induced tail lesion at 250 mg/kg, po measured after 24 to 48 hrs relative to control; format: functional, Orthopoxvirus vaccinia; set-up: scale not given: the % may be the effect or the level left; details: time 24-48 hrs

In the case of `COCc1cc(C)cc2c1Oc1ccc(C)cc1C2`, the MIC (Bacillus subtilis) is reported as 25.4 mg/L (≈ 99.9 µM).

`Cc1cc(C(C)(C)C)c(O)c(C(C)(C)C)c1` gave an Activity [1] of 3.6%.

For `Cc1ccc(O)c(COCc2cc(C)cc3c2Oc2ccc(C)cc2C3)c1`, the MIC (Bacillus subtilis) was 36.1 mg/L (≈ 100 µM).

`COc1cc2c(cc1OC)-c1c(C(=O)OCCc3ccccc3)c(C(=O)OCCc3ccccc3)cc3ccc(OC)c(c13)O2` gave an IC50 (SW480) greater than 100 µM and an IC50 (HepG2) greater than 100 µM.

Molecule `O=C(O)CCc1c2ccc(=O)cc-2oc2cc(O)ccc12` has a Kis [2] of 27 µM.

With `CC(=O)C1C(=O)C[C@@H]2CC[C@@]13c1c(cccc12)Oc1ccc2ccccc2c13` (stereo not given in full) the IC50 (HeLa) was 30.1 µM, the IC50 (A549) was 54.9 µM and the IC50 (Bel-7402) was 17.1 µM. For the same molecule, the IC50 (MG-63) was 82.5 µM.

`O=[As][As+](=O)[O-]` (stereo not given) [ARSENIC TRIOXIDE] gave an IC50 (NB-4) of 5.31 µM.

`O=C(Nc1cccc([N+](=O)[O-])c1)NC(NC(=O)C1c2ccccc2Oc2ccccc21)C(Cl)(Cl)Cl` (stereo not given) showed an EC50 [3] of 1.5 µM.

`COc1ccc(C2c3c(ccc4ccccc34)Oc3ccc4ccccc4c32)cc1` gave an Activity [4] of 67.5% and an Activity [5] of 47.1%.

Molecule `CC(C)(C)C(=O)N[C@H]1CC[C@@H]2Oc3ccc(-c4cncc(F)c4)cc3C3(CSC(N)=N3)[C@H]2C1` (stereo not given in full) has an IC50 (Beta-secretase 1) of 0.0011 µM.

`CC(=O)Oc1cc2c(cc1OC(C)=O)-c1c(C(=O)OCCc3ccccc3)c(C(=O)OCCc3ccccc3)cc3ccc(OC(C)=O)c(c13)O2` showed an IC50 (SW480) of 3.21 µM and an IC50 (HepG2) of 26.7 µM.

For `CC/C(=C1\c2ccccc2Oc2cc(OCCN3CCCC3)ccc21)c1ccccc1`, the IC50 (MCF7) was 12.4 µM and the IC50 (MDA-MB-231) was 25.4 µM.

`Fc1ccc(C2c3cc(-c4ccccc4)ccc3Oc3ccc4ccccc4c32)cc1` (stereo not given) gave an IC50 (NB-4) greater than 50 µM.

Molecule `CN(C)CC(=O)c1ccc2c(c1)Cc1cc(C(=O)CN(C)C)ccc1O2` has an Activity (Vaccinia virus) of 31%.

For `c1ccc(C2c3c(ccc4ccccc34)Oc3ccc4ccccc4c32)cc1`, the Activity [4] was 63.5% and the Activity [5] was 31.1%.

`O=C(OCCc1ccccc1)c1cc2ccc(O)c3c2c(c1C(=O)OCCc1ccccc1)-c1cc(O)c(O)cc1O3` gave an IC50 (SW480) of 2.57 µM, an Activity [1] of 3.6% and an IC50 (HepG2) of 4.76 µM.

With `Oc1ccc(C2c3c(ccc4ccccc34)Oc3ccc4ccccc4c32)cc1` the Activity [4] was 73.2% and the Activity [5] was 53.1%.

For `COc1cc(C2c3c(ccc4ccccc34)Oc3ccc4ccccc4c32)ccc1O`, the Activity [4] was 83.1% and the Activity [5] was 86.8%.

`CNC(=O)c1ccc2c3c(ccc2c1)Oc1ccc2cc(C(=O)NC)ccc2c1C3c1ccc(Cl)cc1` gave an IC50 (NB-4) of 0.76 µM.

Work on `Cc1c(C)c2c(c(C)c1O)CCC(C)(CCCC(C)CCCC(C)CCCC(C)C)O2` (racemic) yielded an Activity [1] of 61.1%.

With `O=C1OC(=O)c2c1cc1ccc(O)c3c1c2-c1cc(O)c(O)cc1O3` the IC50 (SW480) was greater than 100 µM and the IC50 (HepG2) was greater than 100 µM.

`c1ccc(-c2ccc3c(c2)C(c2ccccc2)c2c(ccc4ccccc24)O3)cc1` (stereo not given) showed an IC50 (NB-4) greater than 50 µM.
